Holding throughout (type): functional, organism-based
Details in all cases: Canis lupus familiaris; tested as the 125I-labelled form

Test [1] is filed under the species Canis familiaris. As to the kind of experiment: Compound was tested for uptake in thrombus in the canine arteriovenous shunt model in venous rich condition.
The species named for test [2] is Canis familiaris. In words: Thrombus and blood ratio was determined in the canine arteriovenous shunt model in venous rich condition.
Test [3] is filed under the species Canis familiaris. As to the kind of experiment: Thrombus and blood ratio was determined in the canine arteriovenous shunt model in arterial rich condition.
The species entered for test [4] is Canis familiaris. As to the kind of experiment: Compound was tested for uptake in thrombus in the canine arteriovenous shunt model in arterial rich condition.

Take `CN1C(=O)[C@@H](Cc2ccc(O)c(I)c2)NC(=O)c2cccc(c2)CNC(=O)[C@H](CC(=O)O)NC(=O)CNC(=O)[C@@H]1CCCN=C(N)N`: the ID/g in the test filed under Canis familiaris [1] was 0.25%; in the test listed under Canis familiaris [4] it was 1.81%. Further, the Uptake ratio in the test listed under Canis familiaris [2] is 19.3; in the test filed under Canis familiaris [3], 173.

In the case of `CN1C(=O)[C@@H](CCCCNC(=O)CCc2ccc(O)c(I)c2)NC(=O)c2cccc(c2)CNC(=O)[C@H](CC(=O)O)NC(=O)CNC(=O)[C@@H]1CCCN=C(N)N`, the ID/g in the test filed under Canis familiaris [1] amounted to 0.45%; in the test listed under Canis familiaris [4], 2.6%. The Uptake ratio in the test listed under Canis familiaris [2] was 7.82; in the test listed under Canis familiaris [3] it was 43.9.

The values above are taken from ChEMBL document CHEMBL1129125, “Tc-99m-labeled fibrinogen receptor antagonists: design and synthesis of cyclic RGD peptides for the detection of thrombi” (Bioorg Med Chem Lett, 1996).
